# Laboratory results reported in PMC4897634, “Design of an α-helical antimicrobial peptide with improved cell-selective and potent anti-biofilm activity” (Scientific Reports, 2016).
# Several values for one entry are separate records, joined by “and”; a condition that tells them apart may be missing. Equal entries are not always repeated. Where no end group is shown, it is not given here.
# Experiments:
# human erythrocytes = assay: Haemolytic activity; format: cell-based; conditions: 37 °C, 30 min; for MHC, minimum haemolytic concentration: concentration causing 10% haemolysis of hRBC, 200 μM used when no haemolysis detectable at 100 μM; for haemolytic activity: 25 μM peptide; for haemolytic activity / haemolysis rate: human erythrocytes, relative to 0.1% Triton X-100
# Procedure: Haemolytic activity of the peptides was assayed by a standard procedure with slight modification. Fresh human erythrocytes were washed three times and resuspended at 1.25% haematocrit in PBS. Forty microlitres PBS-diluted peptide solution was added to a V-bottom 96-well plate (Corning Inc., Lowell, MA, USA), and 160 μl of erythrocytes was added. After incubation at 37 °C for 30 min, the samples were centrifuged, and the absorbance of the supernatant was measured at 450 nm using a multi-well microplate reader (SpectraMax M5; Molecular Devices, Sunnyvale, CA, USA) and compared with the 100% haemolysis caused by 0.1% Triton X-100. The percentage of haemolysis was calculated according to the equation (2): […]
# [1] = system: Klebsiella pneumonia (1.1736); assay: Antimicrobial activity, broth microdilution MIC; format: cell-based; conditions: modified CLSI broth microdilution, LB medium, 1 × 10^6 CFU/ml, 37 °C, 18 to 20 hours, absorbance 600 nm
# Procedure: (§1) The antibacterial activities of the peptides against three Gram-negative bacteria and three Gram-positive bacteria strains were measured using a modified version of the Clinical Laboratory and Standards Institute (CLSI) broth microdilution method as described previously. Three Gram-negative bacteria, Escherichia coli (1.8732), Pseudomonas aeruginosa (1.2421), and Klebsiella pneumonia (1.1736), and three Gram-positive bacteria, Staphylococcus aureus (1.8721), Staphylococcus epidermidis (1.4260), and Bacillus subtilis (1.3376), were purchased from the China General Microbiological Culture Collection Centre (CGMCC). Briefly, bacteria were grown in liquid LB medium (tryptone, 10 g/L, yeast extract, 5 g/L and NaCl, 10 g/L) at 37 °C to mid-log phase, and the bacteria were diluted to 1 × 10^6 colony-forming units (CFU)/ml. The peptides were serially diluted with phosphate-buffered saline (PBS), and 50 μl diluted peptides were added to 50 μl of the bacterial suspension in 96-well plate (Corning Inc., Lowell, MA, USA). After incubation at 37 °C for 18 to 20 hours, the absorbance of each well was recorded using a multi-well microplate reader (SpectraMax M5; Molecular Devices, Sunnyvale, CA, USA) at 600 nm. The lowest concentration at which the peptide inhibited complete growth of the bacteria was taken as the minimal inhibitory concentration (MIC).
# Gram-positive bacteria = format: cell-based, S. aureus, S. epidermidis, B. subtilis; conditions: for TI, therapeutic index: ratio of MHC to GM
# Procedure: (§2) The antimicrobial activities of the peptides, indicated by the minimum inhibitory concentrations (MIC), were determined against a range of Gram-negative (Table 3) and Gram-positive bacterial strains (Table 4). The geometric mean of MIC values (GM) from the three strains was calculated to provide an overall evaluation of antimicrobial activity.
# (§3) The therapeutic index (TI) is defined as the ratio of the minimum haemolytic concentration (MHC) of peptides to the GM of peptides, and this value was used to evaluate cell selectivity of peptides towards the negatively charged region of bacterial cell membranes over the zwitterionic mammalian cell membranes.
# as §1
# [2] = system: L929 mouse fibroblast cells; assay: Cytotoxicity, MTT assay; format: cell-based; conditions: 50 μM peptide, 1 hour
# Procedure: The toxicity of the peptides against L929 mouse fibroblast cells was assessed by a standard MTT assay. L929 mouse fibroblast cells from ATCC (Manassas, VA, USA) were maintained in our laboratory. L929 cells were cultured in RPMI 1640 supplemented with 10% (v/v) FBS, 2 mM L-glutamine, 100 U/ml penicillin and […] streptomycin and maintained in a humidified incubator with 5% CO2 at 37 °C. L929 cells (5 × 10^3cells/well) were seeded in 96-well plates (Corning Inc., Lowell, MA, USA) and incubated overnight. Diluted peptides were added to L929 cells and incubated for 1 hour. Then, 20 μl of MTT (5 mg/ml) solution was added and incubated for 4 hours. The medium was removed, and 150 μl of DMSO was added to each well to dissolve the formazan crystals. The absorbance was measured at 490 nm on a microplate reader (SpectraMax M5; Molecular Devices, Sunnyvale, CA, USA). Cell viabilities were calculated by using the equation (3): […]
# [3] = system: Pseudomonas aeruginosa (1.2421); assay: Antimicrobial activity, broth microdilution MIC; format: cell-based; conditions: modified CLSI broth microdilution, LB medium, 1 × 10^6 CFU/ml, 37 °C, 18 to 20 hours, absorbance 600 nm
# Procedure: as §1
# [4] = system: Bacillus subtilis (1.3376); assay: Antimicrobial activity, broth microdilution MIC; format: cell-based; conditions: modified CLSI broth microdilution, LB medium, 1 × 10^6 CFU/ml, 37 °C, 18 to 20 hours, absorbance 600 nm
# Procedure: as §1
# [5] = system: Staphylococcus aureus (1.8721); assay: Antimicrobial activity, broth microdilution MIC; format: cell-based; conditions: modified CLSI broth microdilution, LB medium, 1 × 10^6 CFU/ml, 37 °C, 18 to 20 hours, absorbance 600 nm
# Procedure: as §1
# [6] = system: Escherichia coli (1.8732); assay: Antimicrobial activity, broth microdilution MIC; format: cell-based; conditions: modified CLSI broth microdilution, LB medium, 1 × 10^6 CFU/ml, 37 °C, 18 to 20 hours, absorbance 600 nm
# Procedure: as §1
# [7] = system: Staphylococcus epidermidis (1.4260); assay: Antimicrobial activity, broth microdilution MIC; format: cell-based; conditions: modified CLSI broth microdilution, LB medium, 1 × 10^6 CFU/ml, 37 °C, 18 to 20 hours, absorbance 600 nm
# Procedure: as §1
# Gram-negative bacteria = format: cell-based, E. coli, P. aeruginosa, K. pneumoniae; conditions: for TI, therapeutic index: ratio of MHC to GM
# Procedure: as §2, §3, §1
Compound,"MHC, minimum haemolytic concentration (human erythrocytes)",MIC K. pneumoniae [1] [µM],"TI, therapeutic index (Gram-positive bacteria; Gram-positive bacteria)",haemolytic activity (human erythrocytes) [%],haemolysis rate (human erythrocytes; 100 μM peptide) [%],viability of treated L929 cells [2] [%],MIC P. aeruginosa [3] [µM],MIC B. subtilis [4],MIC S. aureus [5] [µM],MIC E. coli [6] [µM],MIC S. epidermidis [7],"TI, therapeutic index (Gram-negative bacteria; Gram-negative bacteria)",haemolysis rate (human erythrocytes; 3.13 μM peptide) [%],"GM, geometric mean of MIC (Gram-positive bacteria; Gram-positive strains S. aureus, S. epidermidis, B. subtilis) [µM]","Fold (Gram-positive bacteria; Table S3, TI compared with melittin, Gram-positive bacteria)","GM, geometric mean of MIC (Gram-negative bacteria; Gram-negative strains E. coli, P. aeruginosa, K. pneumoniae) [µM]","Fold (Gram-negative bacteria; Table S2, TI compared with melittin, Gram-negative bacteria)"
"CC[C@H](C)[C@H](NC(=O)CN)C(=O)NCC(=O)N[C@@H](C)C(=O)N[C@H](C(=O)N[C@@H](CC(C)C)C(=O)N[C@@H](CCCCN)C(=O)N[C@H](C(=O)N[C@@H](CC(C)C)C(=O)N[C@H](C(=O)N[C@H](C(=O)NCC(=O)N[C@@H](CC(C)C)C(=O)N1CCC[C@H]1C(=O)N[C@@H](C)C(=O)N[C@@H](CC(C)C)C(=O)N[C@H](C(=O)N[C@@H](CO)C(=O)N[C@@H](Cc1c[nH]c2ccccc12)C(=O)N[C@H](C(=O)N[C@@H](CCCCN)C(=O)N[C@@H](CCCNC(=N)N)C(=O)N[C@@H](CCCCN)C(=O)N[C@@H](CCCNC(=N)N)C(=O)N[C@@H](CCC(N)=O)C(=O)N[C@@H](CCC(N)=O)C(N)=O)[C@@H](C)CC)[C@@H](C)CC)[C@@H](C)O)[C@@H](C)O)C(C)C)C(C)C [Melittin, reference compound]",0.78 µM,6.25,–,–,–,–,–,–,–,–,–,–,–,–,–,–,–
AIGSILGALAKGLPTLKSWIKNR-NH2 [A(I17K)],50 µM,50,3.17,6.4,33,7.9,25,6.25 µM,50,25,12.5 µM,1.59,–,–,–,–,–
AIGSILGALAKGLPTLRSWIKNR-NH2 [A(I17R)],25 µM,25,3.17,–,74,6.6,12.5,3.13 µM,25,12.5,6.25 µM,1.59,–,–,–,–,–
AIGSILGRLAKGLPTLISWIKNR-NH2 [A(A8R)],3.12 µM and 3.13 µM,12.5,1,98.3,–,–,12.5,3.13 µM,3.13,12.5,3.13 µM,0.25,12.9,–,–,–,–
"AIGSILGRLAKGLPTLKSWIKNR-NH2 [A(A8R, I17K)]",100 µM,25,5.04,–,–,21.1,25,12.5 µM,100,25,6.25 µM,4,–,–,–,–,–
"M(G1R, V8R, I17R): melittin analogue with residues at position 1, 8 and 17 replaced by positively charged residues (RIGAVLKRLTTGLPALRSWIKRKRQQ; not fully specified; ends and bridges not checked; UniProt P01501 44-69, looked up, variant G1R V8R I17R)",200 µM,12.5,16,–,–,–,25,3.125 µM,100,25,6.25 µM,10.1,–,12.5,64,19.8,101
RIGSILGALAKGLPTLISWIKNR-NH2 [A(A1R)],3.12 µM and 3.13 µM,12.5,0.63,–,–,–,6.25,6.25 µM,6.25,12.5,3.13 µM,0.31,25.9,–,–,–,–
"RIGSILGALAKGLPTLKSWIKNR-NH2 [A(A1R, I17K)]",100 µM,25,6.35,–,–,6.3,12.5,6.25 µM,100,25,6.25 µM,5.04,–,–,–,–,–
"RIGSILGRLAKGLPTLISWIKNR-NH2 [A(A1R, A8R)]",6.25 µM,6.25,1,–,–,–,6.25,6.25 µM,12.5,6.25,3.13 µM,1,–,–,–,–,–
"RIGSILGRLAKGLPTLRSWIKNR-NH2 [A(A1R, A8R, I17R)]",100 µM,12.5,6.35,–,–,–,12.5,12.5 µM,100,12.5,3.13 µM,8,–,–,–,–,–
"RIGVLLARLPKLFSLFKLMGKKV-NH2 [RV-23, reference compound]",6.25 µM,6.25,1.26,–,–,–,6.25,3.125 µM and 3.13 µM,12.5,6.25,3.125 µM and 3.13 µM,1,–,–,–,–,–
